Legend:
Stat5 = biological target: T1, Stat5 (Homo sapiens, UniProt P42229); assay: Native-gel-based Stat5 dimerization assay, CWR22Rv1 cells; assay type: cell-based; conditions: 1 µM, 6 h, Prl (10 nM) stimulated CWR22Rv1 cells, STAT5A-eYFP
T1 construct: expressed in transfected cells; host or cells: CWR22Rv1
Source text: Having established that IST5 and IST5-M both interrupt phosphorylation of Stat5, we next investigated the potency of IST5-M vs. IST5 in suppressing dimerization of Stat5 in PC cells. First, we performed a native Polyacrylamide Gel Electrophoresis (PAGE) based Stat5 dimerization assay established originally by Fahrenkamp et al., where CWR22Rv1 cells were transfected with STAT5A-eYFP (Stat5 wild type), STAT5A-N642H-eYFP (constitutive activated Stat5 by N642H mutation, as a positive control) or STAT3-eYFP (Stat3 wild type, as a negative control) constructs for 3 days (Figure 5A). CWR22Rv1 cells were starved for 16 h, pretreated with vanadate (1 mM) for 2 h, followed by treatment with vehicle, IST5 or IST5-M (1 µM) for 6 h and stimulation with Prl (10 nM) for 1 h.
Figure 5 Both IST5 and IST5-M suppress dimerization of Stat5 with similar efficacies in prostate cancer cells. (A), IST5 and IST5-M inhibit equally potently dimerization of Stat5 in native-gel-based Stat5 dimerization assay. […] Dimerization of Stat5 was analyzed by detection of the eYFP fluorescence of the native Coomassie gel. […] (E), differences in posttranslational modifications were detected between native and recombinant STAT5a using mass spectrometry. Native STAT5a from CWR22Rv1 cells and recombinant STAT5a from E. coli were gel-purified, digested using trypsin, and analyzed by bottom-up mass spectrometry. […]

C57BL/6j mice = assay: Sub-chronic toxicity study (10 days), hematology; assay type: in vivo; conditions: daily i.p. 10 days, blood
Procedure: The sub-chronic toxicity study (10 days) was carried out in C57BL/6J mice (8 weeks) (stock 000664) (n = 10/dose group 5 of each sex). IST5 was administered daily (0, 10, 30 and 100 mg/kg) via i.p. injection. Vehicle (0 mg/kg) group mice received a single i.p. injection of 0.3% hydroxypropyl cellulose. Plasma samples were analyzed for aspartate aminotransferase (AST), alanine aminotransferase (ALT), sorbitol dehydrogenase (SDH), alkaline phosphatase (ALP), γ-lutamyltransferase (GGT), lactate dehydrogenase (LDH), bilirubin (TBIL), protein (TP), glucose (GLU), blood urea nitrogen (BUN), creatinine (CREAT), and electrolytes (Na, K, Cl, Ca, CO2) (Marshfield Labs, WI, USA). A detailed hematological analysis was carried out on the sub-mandibular blood samples of mice collected at the end of the protocol and analyzed for white blood cells, red blood cells, hemoglobin, lymphocyte counts, monocytes, eosinophils and granulocytes. Brain, liver, heart, kidney and spleen were harvested, weighed and fixed in 10% buffered formalin and processed for histopathological analysis. In histopathological analysis, gross morphology and ultra-structural change were assessed. The clinical chemistry parameters measured were the same as those used for the acute toxicity study.

T1 sequence (P42229 whole entry, species assumed): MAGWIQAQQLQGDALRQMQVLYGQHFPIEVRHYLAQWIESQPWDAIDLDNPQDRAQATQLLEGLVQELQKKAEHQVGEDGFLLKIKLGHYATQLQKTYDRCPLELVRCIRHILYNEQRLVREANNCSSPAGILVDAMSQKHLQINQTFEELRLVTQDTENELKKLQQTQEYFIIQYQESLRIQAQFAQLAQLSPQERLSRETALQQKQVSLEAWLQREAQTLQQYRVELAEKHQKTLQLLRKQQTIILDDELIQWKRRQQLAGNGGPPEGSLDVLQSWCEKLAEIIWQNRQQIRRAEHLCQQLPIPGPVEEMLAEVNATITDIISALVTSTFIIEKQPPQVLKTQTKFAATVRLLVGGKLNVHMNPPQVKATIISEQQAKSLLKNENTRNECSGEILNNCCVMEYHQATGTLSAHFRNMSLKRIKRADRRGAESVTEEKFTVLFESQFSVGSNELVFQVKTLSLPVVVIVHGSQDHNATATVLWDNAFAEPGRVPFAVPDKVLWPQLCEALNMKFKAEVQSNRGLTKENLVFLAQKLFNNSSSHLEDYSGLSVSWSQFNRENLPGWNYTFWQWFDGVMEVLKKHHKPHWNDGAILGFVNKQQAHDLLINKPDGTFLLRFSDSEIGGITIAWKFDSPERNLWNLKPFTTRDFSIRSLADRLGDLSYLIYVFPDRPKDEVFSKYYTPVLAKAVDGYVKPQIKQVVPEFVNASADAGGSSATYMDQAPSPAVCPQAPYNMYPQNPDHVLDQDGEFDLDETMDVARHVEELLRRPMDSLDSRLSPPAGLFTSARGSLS

With `O=P(O)(O)OCC1OC(n2cnc3c(NCc4ccccc4)ncnc32)C(O)C1O` (centres unmarked) [IST5] the “inhibition of Stat5 dimerization” value (Stat5) was “inhibited robustly”, the EOS (C57BL/6j mice; 10 mg/kg) was 3.88 ± 1.0% and the GRA (C57BL/6j mice; 10 mg/kg) was 25.9 ± 2.3%. For the same compound, the HGB (C57BL/6j mice; 10 mg/kg) was 19.8 ± 1.4 g/dL, the LYM (C57BL/6j mice; 10 mg/kg) was 67.8 ± 2.0% and the MON (C57BL/6j mice; 10 mg/kg) was 6.29 ± 0.75%. The PLT (C57BL/6j mice; 10 mg/kg) was 614 ± 119 10^3/µL, the RBC (C57BL/6j mice; 10 mg/kg) was 10.59 ± 0.2 M/uL and the WBC (C57BL/6j mice; 10 mg/kg) was 4.18 ± 0.65 K/uL. The EOS (C57BL/6j mice; 30 mg/kg) was 5.29 ± 1.35%, the GRA (C57BL/6j mice; 30 mg/kg) was 29.7 ± 6.7% and the HGB (C57BL/6j mice; 30 mg/kg) was 18.2 ± 2.5 g/dL. The LYM (C57BL/6j mice; 30 mg/kg) was 63.23 ± 6.7%, the MON (C57BL/6j mice; 30 mg/kg) was 7.06 ± 0.5% and the PLT (C57BL/6j mice; 30 mg/kg) was 553 ± 154 10^3/µL. It also gave an RBC (C57BL/6j mice; 30 mg/kg) of 9.61 ± 0.31 M/uL and a WBC (C57BL/6j mice; 30 mg/kg) of 3.76 ± 0.55 K/uL.
